Experimental data published in patent US4027005A, “Diagnostic agents” (New England Nuclear Corporation, priority 1974, dated 1977).
Where two headings read alike, the source gives them in different places.

Legend:
[1] = Comparative one hour rat organ distribution and organ uptake contrast ratios; format: in vivo; settings: i.v.; for Kidney/G.I. organ uptake contrast ratio / Kidney/liver organ uptake contrast ratio / Kidney/blood organ uptake contrast ratio: activity per gram; for Kidney/blood organ uptake contrast ratio: 60 min; for Blood, organ distribution / G.I., organ distribution / Kidney, organ distribution / Liver, organ distribution: decay corrected, average of at least two animals
Method: Each of the foregoing renal scanning agents is aseptically intravenously injected (0.25 ml containing about 3-5 mCi) into adult rats. One hour later the rats are sacrificed, and the blood collected, weighed and counted. The organs of interest, e.g. the kidney, the liver, and the gastrointestinal tract, are individually weighed and the radioactivity contained therein counted. The amount of radioactivity injected is determined by counting the radioactivity in the syringe before and after injection. The organ distribution values are reported as the percent of the activity injected which is observed in the organ, corrected for the radioactive decay of technetium. The organ uptake contrast ratios are determined by determining the relative activity contained per gram of the organs compared.

[2] = Urinary excretion in humans; settings: within the first hour after injection, 60 min
[3] = Distribution data in rats of the glucoheptonate agent; settings: within one hour post injection
[4] = tested on: infarcted myocardial tissue; assay: Infarction tests: accumulation in infarcted myocardial tissue; format: in vivo, rat; settings: for ratio B: activity per gram of infarcted tissue to activity per gram in the blood: 60 min
Method: In each case a myocardial infarct is produced in adult rats by surgery. In Example 9, doses of about 3-5 mCi each of the glucoheptonate and tetracycline agents respectively are injected three hours after infarct was induced. The animals are sacrificed one hour after injection and the heart removed. The infarcted tissue, which is visibly distinguishable from normal myocardial tissue, was excised, weighed and counted. The normal myocardial tissue was also weighed and its activity counted and the results are reported as the ratio of the activity per gram of the infarcted tissue to the activity per gram of the normal tissue (A), and the ratio of the activity per gram of the infarcted tissue to activity per gram in the blood (B). Example 10 reports similar results, the difference being that in that example the radionuclides were injected into the live rats eighteen hours after the infarct was induced, rather than three hours.

[5] = cited from earlier work
[6] = Sub-acute toxicity in mice; format: in vivo; settings: mice, 800, 400 and 80 mg/kg per day for 15 days
[7] = Sub-acute toxicity in dogs; format: in vivo; settings: 19 mg/kg per day for 14 days
[8] = Acute toxicity in mice, intravenous; format: in vivo
[9] = Example 9: rat, injected three hours after infarct, sacrificed one hour after injection
[10] = Example 10: rat, injected eighteen hours after infarct

Compound | Kidney/G.I. organ uptake contrast ratio [1] | Kidney/liver organ uptake contrast ratio [1] | Kidney/blood organ uptake contrast ratio [1] | Blood, organ distribution [1] | G.I., organ distribution [1] | Kidney, organ distribution [1] | Liver, organ distribution [1] | further results
O=C(O)[C@H](O)[C@@H](O)[C@H](O[C@@H]1O[C@H](CO)[C@H](O)[C@H](O)[C@H]1O)[C@H](O)CO [Example 2] | 57 | 102 | 82 | 1.8% of the activity inject | 6.2% of the activity inject | 23% of the activity inject | 1.3% of the activity inject | 
technetium-99m-stannous-glucoheptonate [Example 1] | 44 | 115 | 105 | 1.1% of the activity inject | 5.0% of the activity inject | 18% of the activity inject | 0.7% of the activity inject | injected dose excreted in the urine [2]: about 25%; total blood activity [3]: less than 2%; ratio A: activity per gram of infarcted tissue to activity per gram of normal tissue [4, 9]: 10.3; ratio B: activity per gram of infarcted tissue to activity per gram in the blood [4, 9]: 4.5; ratio A: activity per gram of infarcted tissue to activity per gram of normal tissue [4, 10]: 6.7; ratio B: activity per gram of infarcted tissue to activity per gram in the blood [4, 10]: 3.2; preferential accumulation in infarcted tissue (in words) ([4]; Examples 9 and 10): more effective in preferentially accumulating in infarcted, rather than normal, tissue than the tetracycline infarct agent
O=C(O)CNC(=O)c1ccccc1[131I] [131 I-iodohippuran] |  |  |  |  |  |  |  | accumulation, retention or elimination of prior agents (in words) ([5]; prior art): predominantly eliminated through active secretion by tubular cells
O=C(O)Cn1cc([131I])c(=O)c([131I])c1.OCCNCCO [131 I-iodopyracet] |  |  |  |  |  |  |  | accumulation, retention or elimination of prior agents (in words) ([5]; in vivo): simultaneous accumulation in surrounding tissue, especially the liver
technetium-99m-stannous-DTPA [Example 7] | 65 | 77 | 32 | 1.0% of the activity inject | 1.1% of the activity inject | 5.0% of the activity inject | 0.3% of the activity inject | Kidney/blood organ uptake contrast ratio ([1]; listed as DTPA): 22
technetium-99m-stannous-tetracycline [Tetracycline complex, reference compound] |  |  |  |  |  |  |  | ratio A: activity per gram of infarcted tissue to activity per gram of normal tissue [4, 9]: 5.9; ratio A: activity per gram of infarcted tissue to activity per gram of normal tissue [4, 10]: 3.7
O=C(O)[C@H](O)[C@@H](O)[C@H](O)[C@H](O)CO [Example 5] | 55 | 50 | 40 | 2.3% of the activity inject | 4.8% of the activity inject | 16% of the activity inject | 1.4% of the activity inject | 
stannous glucoheptonate |  |  |  |  |  |  |  | sub-acute toxicity [6]: no ill effects; sub-acute toxicity [7]: no untoward effects; acute toxicity level (LD50) [8]: about 1500 mg/kg
